# Reference: patent publication US12263155B2, “Combinations of monoamine oxidase inhibitors and serotonin receptor agonists and their therapeutic use” (Remedi, Inc., priority 2022, dated 2025)
# Several values for one entry are separate records, joined by “and”; a condition that tells them apart may be missing. Equal entries are not always repeated. Entries after “also recorded” stand apart in the source; their conditions may differ.
# Target: T1, brain MAO-A (Rattus norvegicus, UniProt P21396)
# T1 construct: prepared from brain homogenates of male Sprague-Dawley rats, served as the source of MAO-A enzymatic activity; from tissue
# T1 sequence (P21396 1-526): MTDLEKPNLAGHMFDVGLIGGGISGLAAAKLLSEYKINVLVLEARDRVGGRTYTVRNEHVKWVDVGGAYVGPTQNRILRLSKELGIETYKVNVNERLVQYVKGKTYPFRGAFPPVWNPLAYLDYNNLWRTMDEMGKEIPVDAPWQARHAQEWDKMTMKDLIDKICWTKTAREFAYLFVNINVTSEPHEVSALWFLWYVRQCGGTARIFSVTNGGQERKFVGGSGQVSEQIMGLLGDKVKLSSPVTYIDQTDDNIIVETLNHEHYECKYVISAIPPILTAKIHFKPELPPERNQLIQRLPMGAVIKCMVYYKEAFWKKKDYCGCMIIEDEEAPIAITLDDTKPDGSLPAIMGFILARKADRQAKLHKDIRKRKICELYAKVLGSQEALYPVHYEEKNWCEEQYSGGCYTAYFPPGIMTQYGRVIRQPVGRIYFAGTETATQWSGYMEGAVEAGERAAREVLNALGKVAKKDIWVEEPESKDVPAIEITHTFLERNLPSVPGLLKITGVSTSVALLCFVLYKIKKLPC
# Assay: Ex vivo brain MAO-A activity after oral CX157 in rats
# Set-up: mean brain MAO-A activity (Avg.) / brain MAO-A activity, single experimental day: unit not given here
# Conditions: for mean brain MAO-A activity (Avg.): average of 4 days
# Protocol: Methods: Sprague-Dawley male rats (average weight of 190 g) were segregated into three groups for testing of the effects of CX157 on brain MAO-A enzyme activity. The three groups consisted of animals who received either 1, 5, and 10 mg/kg of CX157. Each group consisted of twenty-four subjects. Test animals were administered the doses of CX157 orally, by the gavage method in accordance with White & Scates, Drug Dev Res. 1992; 25:191-199.
# In each drug group, four animals were sacrificed at each time period (0, 2, 4, 8, 18 and 24 hours) on four different days following drug administration. Brains were removed from the animal, bisected, frozen immediately on dry ice and placed in a −80° C. freezer. Trunk blood was collected in tubes containing sodium heparin and centrifuged at 5000 rpm for 10 minutes at 4° C. to extract the plasma. The frozen brain samples were thawed, weighed, and homogenized (3:1 tissue weight/buffer volume) in 0.25 M sucrose, containing 50 mM KHPO4(pH 7.4), with a Teflon glass homogenizer. Deprenyl HCl (at a final concentration of 100 nM) was added to each sample of homogenate to block MAO-B enzyme activity. A volume of 400 μl of homogenate was pipetted into each assay tube. A 50 μl volume of 500 μM [^14C]-5HT (specific activity of 1.6 Curies/mmol) was added to each assay tube to give a final concentration of […]. Blank assay tubes (included to correct for nonspecific deamination of [^14C]-5HT) also contained 50 μl of RO-41-1049, while total activity assay tubes (specific and nonspecific deaminating activity) contained 50 μl of buffer. The final concentration of RO-41-1049 in the blank activity tubes was 100 μM. This yielded a total assay volume of 500 μl. All assays were incubated for 7.5 minutes at 37° C. The reaction was terminated by the addition of 500 μl of 2 M citric acid. The deaminated [^14C]-5HT metabolite was extracted into a liquid scintillation fluor mixture of xylene/ethyl acetate and 0.4% PPO and quantified using a liquid scintillation spectrometer.
# The specific activity of MAO-A in each of the samples was determined by subtraction of the values obtained in the nonspecific tubes from those in the total activity tubes. Methylcellulose was prepared by weighing 17.5 grams in a weigh boat on a Mettler balance and poured into a 4 liter flask. Two liters of distilled water was added to the 4 liter flask. The mixture was placed on a stir plate/hot plate and stirred overnight (for 24 hours) until completely dissolved. After the methylcellulose dissolved, distilled water was added until the volume in the flask reached 3.5 liters. The CX157 was prepared in a 0.5% methylcellulose/Tween 80 mixture to obtain the following dosages 1, 5, and 10 mg/kg. Initially, 52 mg of CX157 was placed in a 7 ml amber vial. A volume of 52 μl of Tween 80 was added to the amber vial containing CX157. A volume of 5.2 ml of methylcellulose was added to this vial to yield a solution of 10 mg/ml; this solution was used to deliver the 10 mg/kg dose. For the 5 mg/kg dose, a 5 mg/ml solution was prepared as follows; a volume of 1 ml of 10 mg/ml stock was mixed with 1 ml of methylcellulose and sonicated until mixed thoroughly. For the 1 mg/kg dose, a 1:10 dilution of the stock dose of 10 mg/ml was performed by pipetting 0.5 ml of 10 mg/ml stock into an amber vial with an addition of 4.5 ml of methylcellulose followed by sonication to disperse the drug into solution. All drugs were then administered on a 1 ml/kg basis with an average volume of 200 μl.
smiles,measurement,setting,value
"O=S1(=O)c2ccc(F)cc2Oc2cc(OCC(F)(F)F)ccc21 [CX157, 3-fluoro-7(2,2,2-trifluorethoxy)phenoxathiine-10,10-dioxide]","brain MAO-A activity, % Baseline","1 mg/kg oral table, 0 h (baseline)",100%
same,Mean brain MAO-A activity,"1 mg/kg oral table, 0 h (pooled baseline, N=12)",4002.0 DPM
same,mean brain MAO-A activity (Avg.),"1 mg/kg oral, 0 h",3636
same,Mean brain MAO-A activity,"1 mg/kg oral, 2 h",2777.5 DPM
same,"brain MAO-A activity, % Baseline","1 mg/kg oral, 2 h",69%
same,mean brain MAO-A activity (Avg.),"1 mg/kg oral, 2 h",2778
same,Mean brain MAO-A activity,"1 mg/kg oral, 4 h",3023.3 DPM
same,"brain MAO-A activity, % Baseline","1 mg/kg oral, 4 h",76%
same,mean brain MAO-A activity (Avg.),"1 mg/kg oral, 4 h",3023
same,Mean brain MAO-A activity,"1 mg/kg oral, 8 h",5120.8 DPM
same,"brain MAO-A activity, % Baseline","1 mg/kg oral, 8 h",128%
same,mean brain MAO-A activity (Avg.),"1 mg/kg oral, 8 h",5121
same,Mean brain MAO-A activity,"1 mg/kg oral, 18 h",3993.0 DPM
same,"brain MAO-A activity, % Baseline","1 mg/kg oral, 18 h",100%
same,"brain MAO-A activity, single experimental day","1 mg/kg oral, 18 h, Day #1-#4, 1 mg/kg",5071 and 5019 and 3071 and 2811
same,mean brain MAO-A activity (Avg.),"1 mg/kg oral, 18 h",3993
same,Mean brain MAO-A activity,"1 mg/kg oral, 24 h",4883.0 DPM
same,"brain MAO-A activity, % Baseline","1 mg/kg oral, 24 h",122%
same,mean brain MAO-A activity (Avg.),"1 mg/kg oral, 24 h",4883
same,"brain MAO-A activity, % Baseline","5 mg/kg oral table, 0 h (baseline)",100%
same,Mean brain MAO-A activity,"5 mg/kg oral table, 0 h (pooled baseline, N=12)",4002.0 DPM
same,"brain MAO-A activity, single experimental day","5 mg/kg oral, 0 h, Day #1-#4, 5 mg/kg",5661 and 5499 and 3070 and 3687
same,mean brain MAO-A activity (Avg.),"5 mg/kg oral, 0 h",4479
same,Mean brain MAO-A activity,"5 mg/kg oral, 2 h",1495.5 DPM
same,"brain MAO-A activity, % Baseline","5 mg/kg oral, 2 h",37%
same,mean brain MAO-A activity (Avg.),"5 mg/kg oral, 2 h",1496
same,Mean brain MAO-A activity,"5 mg/kg oral, 4 h",2298.0 DPM
same,"brain MAO-A activity, % Baseline","5 mg/kg oral, 4 h",57%
same,mean brain MAO-A activity (Avg.),"5 mg/kg oral, 4 h",2298
same,Mean brain MAO-A activity,"5 mg/kg oral, 8 h",1365.5 DPM
same,"brain MAO-A activity, % Baseline","5 mg/kg oral, 8 h",34%
same,mean brain MAO-A activity (Avg.),"5 mg/kg oral, 8 h",1366
same,Mean brain MAO-A activity,"5 mg/kg oral, 18 h",2818.5 DPM
same,"brain MAO-A activity, % Baseline","5 mg/kg oral, 18 h",70%
same,mean brain MAO-A activity (Avg.),"5 mg/kg oral, 18 h",2818
same,Mean brain MAO-A activity,"5 mg/kg oral, 24 h",3442.5 DPM
same,"brain MAO-A activity, % Baseline","5 mg/kg oral, 24 h",86%
same,mean brain MAO-A activity (Avg.),"5 mg/kg oral, 24 h",3443
same,"brain MAO-A activity, % Baseline","10 mg/kg oral table, 0 h (baseline)",100%
same,Mean brain MAO-A activity,"10 mg/kg oral table, 0 h (pooled baseline, N=12)",4002.0 DPM
same,mean brain MAO-A activity (Avg.),"10 mg/kg oral, 0 h",3889
same,Mean brain MAO-A activity,"10 mg/kg oral, 2 h",3805.8 DPM
same,"brain MAO-A activity, % Baseline","10 mg/kg oral, 2 h",95%
same,mean brain MAO-A activity (Avg.),"10 mg/kg oral, 2 h",3806
same,Mean brain MAO-A activity,"10 mg/kg oral, 4 h",1893.5 DPM
same,"brain MAO-A activity, % Baseline","10 mg/kg oral, 4 h",47%
same,mean brain MAO-A activity (Avg.),"10 mg/kg oral, 4 h",1894
same,Mean brain MAO-A activity,"10 mg/kg oral, 8 h",1034.5 DPM
same,"brain MAO-A activity, % Baseline","10 mg/kg oral, 8 h",26%
same,mean brain MAO-A activity (Avg.),"10 mg/kg oral, 8 h",1035
same,Mean brain MAO-A activity,"10 mg/kg oral, 18 h",2149.8 DPM
same,"brain MAO-A activity, % Baseline","10 mg/kg oral, 18 h",54%
same,mean brain MAO-A activity (Avg.),"10 mg/kg oral, 18 h",2150
same,Mean brain MAO-A activity,"10 mg/kg oral, 24 h",1711.8 DPM
same,"brain MAO-A activity, % Baseline","10 mg/kg oral, 24 h",43%
same,mean brain MAO-A activity (Avg.),"10 mg/kg oral, 24 h",1712
same,inhibition of brain MAO-A enzyme activity after oral administration,"oral 1, 5, 10 mg/kg",dose and time dependent manner; also recorded: dose-dependent and reversible fashion
